In US20040082591A1, “Therapeutic heterocyclic compounds” (priority 2001, published 2004):

System: 5-HT1B receptors and 5-HT1D receptors
Assay: Radioligand competition binding with [3H]-GR125743 on membranes of transfected CHO cells
Settings: not given
Source text: Other assays that may be used to measure for example affinity of compounds of the present invention for 5HT1B and 5HT1D receptors are described in J. Med. Chem 41:1218-1235, 1228 (1998) and J. Med. Chem 42:4981-5001, (1999) and incorporated by reference herein. These assays may be used with some modifications: Frozen membrane preparations of a stably transfected chinese hamster ovary (CHO) cell line expressing 5-HT1B receptors and 5-HT1D receptors are thawed rapidly, briefly vortexed, and diluted in assay buffer (AB) containing 50 mM Tris-HCl, 4 mM MgCl2, 4 mM CaCl2, 1 mM EDTA, and adjusted to pH 7.4 with NaOH. Final protein concentrations are—0.185 mg/ml for 5-HT1B, and 0.4 mg/ml for 5-HT1D membranes. Test compounds are evaluated in competition assays using [^3H]-GR125743 (Amersham). The ligand concentration in both assays was 0.27 nM. […] The 5-HT1B and 5-HT1D assays are performed simultaneously on one 96-well assay plate, one drug/compound per plate. Ten serial dilutions (1 uM to 4 pM, final concentration) of compound are prepared in DMSO from 10 mM stock solutions. Incubation mixtures are prepared in quadruplicate in 96-deep well assay plates (Matrix 1 ml). […] The plates are then counted on a Packard TopCount to determine CPM's per well. Ki values are determined for each test compound utilizing the graphic and analytical software package, GraphPad Prism. […]

**Q.** For COc1ccc(NC(=O)c2ccc(-c3ccncc3)c(C)c2)cc1N1CCN(C)CC1 [[^3H]-GR125743], which Kd is on record?
**A.** Its Kd is 0.15 to 0.25 nM.

Molecular target: 5-HT1B and 5HT1D receptors
Assay: not given
Settings: saturation studies, guinea pig cortex; 'may result in a measurement of'; read-out: Kd value of [3H]GR125743; cited from earlier work

**Q.** For COc1ccc(NC(=O)c2ccc(-c3ccncc3)c(C)c2)cc1N1CCN(C)CC1 [[^3H]-GR125743], which Kd is on record?
**A.** The Kd was 0.046 ± 0.004 nM.

System: Hartley guinea pigs
Assay: Learned helplessness test
Assay type: in vivo, guinea pig
Settings: antidepressant/antianxiety activity
Source text: The utility of the compounds for example to treat depression may be shown via a learned helplessness test in guinea pigs, which is used extensively as correlative to antidepressant activity in humans. The learned helplessness test may be carried out as follows: Seventy male Hartley guinea pigs, each weighing about 350-425 gm are fed ad lib, and are housed under a 12-hour light/dark cycle. The procedure consists of two phases: The induction phase and the avoidance training phase. In the induction phase, subjects are placed into standard shuttle cages (20 L×16 W×21 centimeters H) which are fitted with a grid floor. Electrical stimulation (1.25 mA, 10 sec duration) is delivered to the floor of the cage every 90-sec during 1 hour daily sessions. Subjects have no opportunity to escape or to avoid shocks. Induction is conducted for 2 consecutive days.
In avoidance training, testing is also conducted in the shuttle cages, except that the subjects are not returned to the same chamber in which induction had occurred. Additionally, all cages are fitted with a partition with an arch in the center of the cage, through which animals can pass between the left and right halves of the cage. The procedure employed is a standard shuttle avoidance procedure in which a compound, conditioned stimulus (a 10-sec presentation of a tone and turning on of a lamp on the side of the cage that the guinea pig was occupying) serves to indicate presentation of electrical current to the floor of the cage. Shock is presented for a 5 sec period, 5 sec after initiation of the conditioned stimulus. Entry into the opposite side of the shuttle cage via the arched partition prior to shock onset results in the end of the trial (avoidance response). If shock is delivered, entry into the opposite side of the cage results in termination of the shock and CS (escape). Reversal of learned helplessness in the induction subjects correlates to antidepressant activity of the test compound.
Avoidance training, 45-min in duration, is conducted on 2 consecutive days, beginning 48 hr after the final induction session. Seventy subjects are assigned to 1 of 6 groups of 11-12 animals. The groups are as follows:
Groups 2-6 are given induction and avoidance training sessions. Injections are administered immediately following induction sessions and 1 hour prior to avoidance training sessions. A second injection is administered 7-8 hours following the first injection, for a total of 9 injections administered over 5 days. No injections are administered following the final avoidance training session.
Compounds of the present invention may be administered in a volume of 1 mL/kg bwt. Imipramine is dissolved in DI water. The compounds are dissolved in DI water, to which was added a few drops of lactic acid (pH 5.5). […]

**Q.** For COc1cc(N2CCN(C)CC2)c2oc(C(=O)Nc3ccc(N4CCOCC4)cc3)cc(=O)c2c1 [Example 31, 6-Methoxy-8-(4-methyl-piperazin-1-yl)-4-oxo-4H-chromene-2-carboxylic acid (4-morpholin-4-yl-phenyl)-amide], which “activity in the learned helplessness assay” value (from here on “activity”) is on record?
**A.** The value was “demonstrate activity”.

**Q.** With CCC(=O)N1CCN(c2ccc(NC(=O)c3cc(=O)c4cc(OC)cc(N5CCN(C)CC5)c4o3)cc2)CC1 [Example 44, 6-Methoxy-8-(4-methyl-piperazin-1-yl)-4-oxo-4H-chromene-2-carboxylic Acid [4-(4-propionyl-piperazin-1-yl)-phenyl]-amide] as the compound, how does the “activity” value read?
**A.** The value was “demonstrate activity”.

**Q.** Which “activity” value does the source give for CCS(=O)(=O)N1CCN(c2ccc(NC(=O)c3cc(=O)c4cc(F)cc(N5CCN(C)CC5)c4o3)cc2)CC1 [Example 71] here?
**A.** The value was “demonstrate activity”.

**Q.** For CCC(=O)N1CCN(c2ccc(NC(=O)c3cc(=O)c4cc(F)cc(N5CCN(C)CC5)c4o3)cc2)CC1 [Example 72, 6-flouro-8-(4-methyl-piperazin-1-yl)-4-oxo-4H-chromene-2-carboxylic acid [4-(4-propionyl-piperazin-1-yl)-phenyl]-amide], which “activity” value is on record?
**A.** Its value is “demonstrate activity”.

System: not given
Assay: not given
Settings: not given

**Q.** Which melting point does the source give for CN1CCN(c2cccc3c2OC(C(=O)Nc2ccc(N4CCOCC4)cc2)CC3)CC1 (racemic) [Example 75, Racemic-8-(4-Methyl-piperazin-1-yl)-chroman-2-carboxylic acid (4-morpholin-4-yl-phenyl)-amide] here?
**A.** The melting point was 215 to 216 °C.

**Q.** For CN1CCN(c2cccc3c2OC(C(=O)Nc2ccc(N4CCOCC4)cc2)CC3=O)CC1 (racemic) [Example 78, racemic-8-(4-methyl-piperazin-1-yl)-4-oxo-chroman-2-carboxylic acid (4-morpholin-4-yl-phenyl)-amide], which melting point is on record?
**A.** Its melting point is 215 to 216 °C.

**Q.** Which melting point does the source give for CN1CCN(c2cccc3c2OC(C(=O)Nc2ccc(N4CCOCC4)cc2)CC3=O)CC1 (single isomer, unassigned) [Example 79, 8-(4-Methyl-piperazin-1-yl)-4-oxo-chroman-2-carboxylic Acid (4-morpholin-4-yl-phenyl)-amide] here?
**A.** Its melting point is 216 °C (dec.).

**Q.** Which melting point does the source give for CN1CCN(c2cccc3c2OC(C(=O)Nc2ccc(N4CCOCC4)cc2)CC3=O)CC1 (single isomer, unassigned) [Example 80, 8-(4-Methyl-piperazin-1-yl)-4-oxo-chroman-2-carboxylic Acid (4-morpholin-4-yl-phenyl)-amide] here?
**A.** Its melting point is 215 °C (dec.).

**Q.** For CN1CCN(c2cccc3c2OC(C(=O)Nc2ccc(N4CCOCC4)cc2)CC3)CC1 (single isomer, unassigned; (+)) [Example 76, (+)-8-(4-Methyl-piperazin-1-yl)-chroman-2-carboxylic Acid (4-morpholin-4-yl-phenyl)-amide], which melting point is on record?
**A.** The melting point was 206 to 207 °C.

**Q.** With CN1CCN(c2cccc3c2OC(C(=O)Nc2ccc(N4CCOCC4)cc2)CC3)CC1 (single isomer, unassigned; (-)) [Example 77, (−)-8-(4-Methyl-piperazin-1-yl)-chroman-2-carboxylic Acid (4-morpholin-4-yl-phenyl)-amide] as the compound, how does the melting point read?
**A.** The melting point was 205.5 to 207 °C.

**Q.** With CN1CCN(c2cccc3c(=O)cc(C(=O)Nc4ccc(N5CCOCC5)cc4)oc23)CC1 [Example 1, 8-(4-methyl-1-piperazinyl)-N-[4-(4-morpholinyl)phenyl]-4-oxo-4H-chromene-2-carboxamide] as the compound, how does the melting point read?
**A.** The melting point was 217 to 218 °C (dec.).

**Q.** For CN1CCN(c2cccc3c(=O)cc(-c4nc5ccc(N6CCOCC6)cc5o4)oc23)CC1 [Example 21, 8-(4-Methyl-piperazin-1-yl)-2-(6-morpholin-4-yl-benzooxazol-2-yl)-chromen-4-one], which melting point is on record?
**A.** Its melting point is 158.1 to 158.8 °C.

**Q.** For CN1CCN(c2cccc3c(=O)cc(C(=O)Nc4ccc(N5CCOCC5)cc4O)oc23)CC1 [Example 22, 8-(4-Methyl-piperazin-1-yl)-4-oxo-4H-chromene-2-carboxylic Acid (2-hydroxy-4-morpholin-4-yl-phenyl)-amide], which melting point is on record?
**A.** The melting point was 248.4 to 249.6 °C.

**Q.** For COc1cc(N2CCN(C)CC2)c2oc(C(=O)Nc3ccc(N4CCOCC4)cc3)cc(=O)c2c1 [Example 31, 6-Methoxy-8-(4-methyl-piperazin-1-yl)-4-oxo-4H-chromene-2-carboxylic acid (4-morpholin-4-yl-phenyl)-amide], which melting point is on record?
**A.** The melting point was 234 to 236 °C.

**Q.** Which melting point does the source give for COc1cc(N2CCN(C)CC2)c2oc(C(=O)Nc3ccc(N4CCN(C(=O)CCO)CC4)cc3)cc(=O)c2c1 [Example 68, 6-Methoxy-8-(4-methyl-piperazin-1-yl)-4-oxo-4H-chromene-2-carboxylic Acid {4-[4-(3-hydroxy-propanoyl)-piperazin-1-yl]-phenyl}-amide] here?
**A.** Its melting point is 195 to 197 °C.

**Q.** Which melting point does the source give for CCS(=O)(=O)N1CCN(c2ccc(NC(=O)c3cc(=O)c4cc(F)cc(N5CCN(C)CC5)c4o3)cc2)CC1 [Example 71] here?
**A.** The melting point was 233 to 234 °C.

**Q.** Which melting point does the source give for CN1CCN(c2cc(F)cc3c(=O)cc(C(=O)Nc4ccc(N5CCN(C(=O)CCO)CC5)cc4)oc23)CC1 [Example 73, 6-Fluoro-8-(4-methyl-piperazin-1-yl)-4-oxo-4H-chromene-2-carboxylic Acid {4-[4-(3-hydroxy-propanoyl)-piperazin-1-yl]-phenyl}-amide] here?
**A.** The melting point was 195 to 199 °C.

**Q.** With CCNC(=O)N1CCN(c2ccc(NC(=O)c3cc(=O)c4cc(F)cc(N5CCN(C)CC5)c4o3)cc2)CC1 [Example 81, 4-[4-({1-[6-Fluoro-8-(4-methyl-piperazin-1-yl)-4-oxo-4H-chromen-2-yl]-methanoyl}-amino)-phenyl]-piperazine-1-carboxylic Acid Ethylamide] as the compound, how does the melting point read?
**A.** Its melting point is 236 to 238 °C.
